For assay [1] the following is noted: intranasal; greater than those produced by hydrocortisone; cited from earlier work.
In the next assay the test system is endothelial cell lines. Nature of the assay: Microarray expression analysis of endothelial cell lines treated with TNF-α. The assay is classed as cell-based, human. To be noted: 10 ng/ml TNF-α, within four hours; in five out of the eight endothelial cell lines.
Assay [2] concerns vascular smooth muscle cells (SMCs). To be noted: cited from earlier work.
Assay [3] has as its system human fibroblastic IMR-90 cells. To be noted: cited from earlier work.
The test system of assay [4] is human umbilical vein endothelial cells (HVECs). As to conditions: TNF-α treated compared with untreated cells; cited from earlier work.
Another assay has as its system dendritic cells. Nature of the assay: Microarray expression analysis during differentiation and maturation of dendritic cells. The assay is classed as cell-based, human. As to conditions: maturation of dendritic cells induced by TNF-alpha, versus immature dendritic cells (Lci). The procedure: Human CD34 positive precursor cells were isolated by positive immunomagnetic selection from the leukapheresis of normal volunteer donors who had undergone G-CSF-induced stem cell mobilization. The purified CD34+ cells were cultured in vitro for 10 days in the presence of recombinant GM-CSF, Stem Cell Factor, TNF-alpha, TGF-beta1, and Flt3-Ligand. The resulting expanded cell population was enriched for cell cluster-forming immature dendritic cells (Lci) by sedimentation over a 7.5% BSA column at 1 g for 30 min. Immature dendritic cells were cultured for two additional days in the presence of the same combination of cytokines supplemented with LPS, IL-1beta, TNF-alpha, or double strand RNA. In addition, cluster-forming immature dendritic cells were disrupted by vigorous pipetting and cultured for two additional days in the presence of the same combination of cytokines without addition of any additional factor. The partially mature dendritic cells derived by mechanical disruption of cell clusters are characterized by the presence of intracellular rod-shaped structures called Birbeck's Granules. The dendritic cell population produced using this method was called Birbeck's Granule-positive dendritic cells, or BG. […]

For assay [5], the system named is bovine aortic endothelial cells. To be noted: confluent cells; cited from earlier work.

In the case of `C[C@H]1C[C@H]2[C@@H]3CCC4=CC(=O)C=C[C@]4(C)[C@@]3(Cl)[C@@H](O)C[C@]2(C)[C@@]1(O)C(=O)CO` [beclomethasone, Beclomethasone], the “anti-inflammatory and vasoconstrictive effects relative to hydrocortisone” value in assay [1] is 5000 times.
Turning to TNF-α, the “expression of SEQ ID NO:58” value with endothelial cell lines is given as “downregulated by at least two-fold”. Moreover, the “relative proportion of collagen types IV and V” value in assay [2] is “decreases”. Further, in assay [2] (confluent cultures), the “incorporation of [3H]proline into collagenase-digestible proteins (CDP) and noncollagenous proteins (NCP)” value is “suppresses”. Besides, the “suppression of [3H]proline incorporation” value in assay [3] and in assay [5] was “not observed” throughout. The “increase of cellular secretions of MCP-1” value in assay [4] was 119 fold. Moreover, the “expression of SEQ ID NO:96” value in the assay on dendritic cells is on record as “greater than two-fold expression”.

The record behind these values is patent US20040249128A1, “Molecules for disease detection and treatment” (priority 2001, published 2004).
